Source: ChEMBL document CHEMBL4028802, “DILIrank: the largest reference drug list ranked by the risk for developing drug-induced liver injury in humans” (Drug Discov Today, 2016)

Columns and labels:
Homo sapiens [1] = species on record: Homo sapiens; test: Liver toxicity in human assessed as induction of drug-induced liver injury by measuring severity class index
Homo sapiens [2] = species on record: Homo sapiens; test: Liver toxicity in human assessed as induction of drug-induced liver injury by measuring verified drug-induced liver injury concern status
Wherever DILI severity class is given: key of the grades not given here.

| Compound | DILI_severity_class (Homo sapiens [1]) | DILI_Concern (Homo sapiens [2]) |
| --- | --- | --- |
| CCOc1nc2cccc(C(=O)O)c2n1Cc1ccc(-c2ccccc2-c2nnn[nH]2)cc1 | 3 | Less-Dili-Concern |
| CCCc1nc2c(C)cc(-c3nc4ccccc4n3C)cc2n1Cc1ccc(-c2ccccc2C(=O)O)cc1 | 3 | Less-Dili-Concern |
| CCCCN1C[C@H](O)[C@@H](O)[C@H](O)[C@H]1CO | 0 | No-Dili-Concern |
| CCCCC(=O)N(Cc1ccc(-c2ccccc2-c2nnn[nH]2)cc1)[C@H](C(=O)O)C(C)C | 3 | Less-Dili-Concern |
| CC[C@H](C)[C@H](NC(=O)[C@H](CC(=O)O)NC(=O)[C@H](CC(C)C)NC(=O)[C@H](CC(C)C)NC(=O)[C@H](CCCCN)NC(=O)[C@H](CCCN=C(N)N)NC(=O)[C@H](CC(N)=O)NC(=O)[C@H](CO)NC(=O)[C@H](Cc1cnc[nH]1)NC(=O)[C@H](C)NC(=O)[C@H](CCC(N)=O)NC(=O)[C@H](CCC(N)=O)NC(=O)[C@H](C)NC(=O)[C@H](CC(C)C)NC(=O)[C@H](CCC(N)=O)NC(=O)[C@H](CC(=O)O)NC(=O)[C@H](C)NC(=O)[C@H](CCCCN)NC(=O)[C@@H](NC(=O)[C@H](CCSC)NC(=O)[C@H](CCC(=O)O)NC(=O)[C@H](CC(C)C)NC(=O)[C@@H](NC(=O)[C@H](CCC(=O)O)NC(=O)[C@H](CCCN=C(N)N)NC(=O)[C@H](CC(C)C)NC(=O)[C@H](CC(C)C)NC(=O)[C@H](Cc1cnc[nH]1)NC(=O)[C@H](Cc1ccccc1)NC(=O)[C@@H](NC(=O)[C@H](CC(C)C)NC(=O)[C@H](CC(=O)O)NC(=O)[C@H](CC(C)C)NC(=O)[C@H](CO)NC(=O)[C@@H](NC(=O)[C@@H]1CCCN1C(=O)[C@@H]1CCCN1C(=O)[C@H](CCC(=O)O)NC(=O)[C@H](CCC(N)=O)NC(=O)[C@@H](N)CO)[C@@H](C)CC)[C@@H](C)O)C(C)C)[C@@H](C)O)C(=O)N[C@@H](C)C(N)=O | 0 | No-Dili-Concern |
| CC(C)(C)NC(=O)[C@@H]1C[C@@H]2CCCC[C@@H]2CN1C[C@@H](O)[C@H](Cc1ccccc1)NC(=O)[C@H](CC(N)=O)NC(=O)c1ccc2ccccc2n1 | 3 | Less-Dili-Concern |
| CCOC(=O)[C@H](CCc1ccccc1)N[C@@H](C)C(=O)N1[C@H](C(=O)O)C[C@@H]2CCC[C@@H]21 | 7 | Less-Dili-Concern |
| COc1cc2c(cc1OC)[C@@H](Cc1cc(OC)c(OC)c(OC)c1)[N+](C)(CCCOC(=O)CC/C=C/CCC(=O)OCCC[N+]1(C)CCc3cc(OC)c(OC)cc3[C@H]1Cc1cc(OC)c(OC)c(OC)c1)CC2 (some centres undefined) | 0 | No-Dili-Concern |
| Cl.NCCNCCNCCN | 1 | No-Dili-Concern |
| O=C(O)[C@@H](S)[C@@H](S)C(=O)O | 2 | Less-Dili-Concern |
| C[C@@H](NCCCc1cccc(C(F)(F)F)c1)c1cccc2ccccc12 | 0 | No-Dili-Concern |
| CC[C@@H](C(N)=O)N1CCCC1=O | 8 | Less-Dili-Concern |
| CC(C)CN(C[C@@H](O)[C@H](Cc1ccccc1)NC(=O)O[C@H]1CO[C@H]2OCC[C@H]21)S(=O)(=O)c1ccc(N)cc1 | 8 | Most-Dili-Concern |
| COc1ccc(CC2c3cc(OC)c(OC)cc3CC[N+]2(C)CCC(=O)OCCCCCOC(=O)CC[N+]2(C)CCc3cc(OC)c(OC)cc3C2Cc2ccc(OC)c(OC)c2)cc1OC (centres undefined) | 0 | No-Dili-Concern |
| CC1=C(CC(=O)O)c2cc(F)ccc2/C1=C\c1ccc([S+](C)[O-])cc1 (centres undefined) | 8 | Most-Dili-Concern |
| CCOC(=O)[C@H](CCc1ccccc1)N[C@@H](C)C(=O)N1Cc2ccccc2C[C@H]1C(=O)O | 3 | Less-Dili-Concern |
| COCCCOc1cc(C[C@@H](C[C@H](N)[C@@H](O)C[C@H](C(=O)NCC(C)(C)C(N)=O)C(C)C)C(C)C)ccc1OC | 0 | Less-Dili-Concern |
| FC(F)(F)C(F)(F)C(F)(F)F | 0 | No-Dili-Concern |
| O=C(O)c1ccccc1-c1c2ccc(=O)cc-2oc2cc(O)ccc12 | 0 | No-Dili-Concern |
| CO/N=C(\C(=O)N[C@@H]1C(=O)N2C(C(=O)[O-])=C(C[N+]3(C)CCCC3)CS[C@H]12)c1csc(N)n1 | 3 | Less-Dili-Concern |
| CCCc1nn(C)c2c(=O)[nH]c(-c3cc(S(=O)(=O)N4CCN(C)CC4)ccc3OCC)nc12 | 3 | Less-Dili-Concern |
| CCC[C@@]1(CCc2ccccc2)CC(O)=C([C@H](CC)c2cccc(NS(=O)(=O)c3ccc(C(F)(F)F)cn3)c2)C(=O)O1 | 8 | Most-Dili-Concern |
| O=S(=O)(OC[C@H]1O[C@@H](O[C@]2(COS(=O)(=O)[O][Al]([OH])[OH])O[C@H](OS(=O)(=O)[O][Al]([OH])[OH])[C@@H](OS(=O)(=O)[O][Al]([OH])[OH])[C@@H]2OS(=O)(=O)[O][Al]([OH])[OH])[C@H](OS(=O)(=O)[O][Al]([OH])[OH])[C@@H](OS(=O)(=O)[O][Al]([OH])[OH])[C@@H]1OS(=O)(=O)[O][Al]([OH])[OH])[O][Al]([OH])[OH].[OH][Al]([OH])[OH].[OH][Al]([OH])[OH].[OH][Al]([OH])[OH].[OH][Al]([OH])[OH].[OH][Al]([OH])[OH].[OH][Al]([OH])[OH].[OH][Al]([OH])[OH].[OH][Al]([OH])[OH] | 0 | No-Dili-Concern |
| Cc1nnc(C(=O)NC(C)(C)c2nc(C(=O)NCc3ccc(F)cc3)c(O)c(=O)n2C)o1 | 7 | Most-Dili-Concern |

| Compound | DILI_severity_class (Homo sapiens [1]) | DILI_Concern (Homo sapiens [2]) |
| --- | --- | --- |
| CCN(CC)C(=O)C1(c2ccccc2)CC1CN (centres undefined) | 7 | Most-Dili-Concern |
| O=C(O)COc1ccc(C(=O)c2cccs2)c(Cl)c1Cl | 8 | Most-Dili-Concern |
| O=S([O-])([O-])=S.[Na+].[Na+] | 0 | No-Dili-Concern |
| C/C=C1\NC(=O)[C@@H]2CSSCC/C=C/[C@@H](CC(=O)N[C@H](C(C)C)C(=O)N2)OC(=O)[C@H](C(C)C)NC1=O | 0 | No-Dili-Concern |
| C=CC[N+]1([C@H]2C[C@H]3[C@@H]4CC[C@H]5C[C@H](O)C(N6CCOCC6)C[C@]5(C)[C@H]4CC[C@]3(C)[C@H]2OC(C)=O)CCCC1 (some centres undefined) | 0 | No-Dili-Concern |
| CC(C)C[C@H](NC(=O)[C@H](Cc1c[nH]c2ccccc12)NC(=O)[C@H](Cc1ccc(O)cc1)NC(=O)[C@H](CO)NC(=O)[C@H](Cc1c[nH]c2ccccc12)NC(=O)[C@H](Cc1c[nH]cn1)NC(=O)[C@@H]1CCC(=O)N1)C(=O)N[C@@H](CCCNC(=N)N)C(=O)N1CCC[C@H]1C(=O)NCC(N)=O.O=C(O)c1cc2ccccc2c(Cc2c(O)c(C(=O)O)cc3ccccc23)c1O | 3 | Less-Dili-Concern |
| CC(=O)N[C@@H]1[C@@H](O[C@@H]2O[C@@H](C(=O)O)[C@@H](O)[C@H](O)[C@H]2O)[C@@H](OS(=O)(=O)O)[C@@H](CO)O[C@H]1O | 8 | Most-Dili-Concern |
| CCC(C)CCCCC(=O)N[C@@H](CCNCS(=O)(=O)O)C(=O)N[C@H](C(=O)N[C@@H](CCNCS(=O)(=O)O)C(=O)N[C@H]1CCNC(=O)[C@H]([C@@H](C)O)NC(=O)[C@H](CCNCS(=O)(=O)O)NC(=O)[C@H](CCNCS(=O)(=O)O)NC(=O)[C@H](CC(C)C)NC(=O)[C@@H](CC(C)C)NC(=O)[C@H](CCNCS(=O)(=O)O)NC1=O)[C@@H](C)O (some centres undefined) | 0 | No-Dili-Concern |
| CC1=C(CCC(=O)O)c2cc3[nH]c(cc4[nH]c(cc5nc(cc1n2)C(C)=C5C(C)OC(C)c1c(C)c2cc5nc(cc6nc(cc7[nH]c(cc1[nH]2)c(C)c7CCC(=O)O)C(CCC(=O)O)=C6C)C(C(C)O)=C5C)c(C)c4C(C)O)c(C)c3CCC(=O)O (centres undefined) | 0 | No-Dili-Concern |
| COc1ccc2[n-]c([S@+]([O-])Cc3ncc(C)c(OC)c3C)nc2c1.[Na+] | 4 | Less-Dili-Concern |
| O=C(O)c1cc(=O)c2cc(OCC(O)COc3cccc4oc(C(=O)O)cc(=O)c34)ccc2o1 (centres undefined) | 3 |  |
| C#C[C@@]1(OC(C)=O)CC[C@H]2[C@@H]3CCC4=CC(=O)CC[C@@H]4[C@H]3CC[C@@]21C | 0 | No-Dili-Concern |
| NCC1O[C@H](O[C@H]2[C@@H](O)[C@H](O[C@H]3[C@H](O)[C@@H](N)C[C@@H](N)[C@@H]3O[C@H]3O[C@H](CN)[C@@H](O)[C@H](O)[C@H]3N)O[C@@H]2CO)[C@H](N)[C@@H](O)[C@@H]1O (some centres undefined) | 0 | No-Dili-Concern |
| CCO[C@@H]1OC(=O)C[C@@H]1NC(=O)[C@@H]1CCCN2C(=O)CC[C@H](NC(=O)c3nccc4ccccc34)C(=O)N12 | 8 | Most-Dili-Concern |
| CCOC(=O)[C@H](CCc1ccccc1)N[C@@H](C)C(=O)N1CCC[C@H]1C(=O)O | 7 | Less-Dili-Concern |
| Cc1c(O)cccc1C(=O)N[C@@H](CSc1ccccc1)[C@H](O)CN1C[C@H]2CCCC[C@H]2C[C@H]1C(=O)NC(C)(C)C | 3 | Less-Dili-Concern |
| Nc1nc(N)c2nc(-c3ccccc3)c(N)nc2n1 | 5 | Less-Dili-Concern |
| COc1ccc(CCN(C)CCCC(C#N)(c2ccc(OC)c(OC)c2)C(C)C)cc1OC (centres undefined) |  | Less-Dili-Concern |
| N[C@@H](Cc1ccc(N(CCCl)CCCl)cc1)C(=O)O | 5 | Less-Dili-Concern |
| C=CC1=C(C(=O)O)N2C(=O)[C@@H](NC(=O)/C(=N\O)c3csc(N)n3)[C@H]2SC1 | 7 | Less-Dili-Concern |
| CC(=O)Nc1ccc(O)cc1 [ACETAMINOPHEN] |  | Most-Dili-Concern |
| CN(C)CCCN1c2ccccc2CCc2ccccc21 [IMIPRAMINE] |  | Less-Dili-Concern |
| Clc1ccccc1CN1CCc2sccc2C1 [TICLOPIDINE] |  | Most-Dili-Concern |
